Converted amounts (≈) assume the structure as drawn. “Also recorded” adds a separate entry of the source. Like-named read-outs stand apart in the source and are kept apart here.
Experiments:
[1] = in vivo; for Tox. i.p.: ip
KB cell line = assay: XTT proliferation test/cytotoxicity test, KB cell line; format: cell-based; conditions: KB tumor cells; for EC50: Homo sapiens, KB, read-out: XTT EC50 KB
Experimental: (§1) In this test system, the effect of substances on the proliferation behavior of tumor cell lines is investigated. In the course of this, the cytotoxic potential of these substances is determined. The test method is described in Scudiero et al. 1988, Cancer Res. 48, 4827.
(§2) The following tumor cell lines were employed in the investigations:
(§3) The KB cell line an epidermal carcinoma of the oral cavity,
(§4) the L1210 cell line a lymphatic leukemia of the mouse, the LNCAP cell line a prostate carcinoma and the SK-OV-3 cell line an ovarian carcinoma.

L1210 cell line = assay: XTT proliferation test/cytotoxicity test, L1210 cell line; format: cell-based, mouse; conditions: for XTT EC50 L1210: L1210 tumor cells; for EC50: Mus musculus, L1210, L1210 tumor cells, read-out: XTT EC50 L1210
Experimental: as §1, §2, §3, §4

L1210 [2] = assay: L1210 leukemia model in vivo (% ILS, survival time); parameters: species or system mouse; conditions: for Antitumor action on L 1210 (mouse): oral and intraperitoneal administration
Excerpt: (§5) In the hollow fiber assay, both compounds were almost equally strongly active, while on L 1210 D-24851 was markedly more strongly active after oral and intraperitoneal administration than D-24241.

MCF-7 = assay: Hollow fiber assay on the nude mouse, MCF-7; format: in vivo
Excerpt: as §5

KB [3] = assay: KB test on the nude mouse (% WHI); format: in vivo; conditions: for % WHI: KB
SK-OV-3 cell line = assay: XTT proliferation test/cytotoxicity test, SK-OV-3 cell line; format: cell-based; conditions: for EC50: Homo sapiens, SK-OV-3, SK-OV-3 tumor cells, read-out: XTT EC50 SK-OV-3
Experimental: as §1, §2, §3, §4

LNCAP cell line = assay: XTT proliferation test/cytotoxicity test, LNCAP cell line; format: cell-based; conditions: LNCaP tumor cells; for EC50: Homo sapiens, read-out: XTT EC50 LNCaP
Experimental: as §1, §2, §3, §4

L1210 [4] = assay: Hollow fiber assay on the nude mouse, L1210; format: in vivo
Excerpt: as §5

KB [5] = assay: Hollow fiber assay on the nude mouse, KB; format: in vivo
Excerpt: as §5

SK-OV-3 = assay: In vivo % WHI printed in the SK-OV-3 column of Table 3
Hematopoiesis test = format: in vivo; conditions: intraperitoneal administration; listed as D-24851
Dunning tumor = Dunning tumor in the rat; format: in vivo; conditions: repeated oral administration, 7×100 mg/kg and 7×147 mg/kg p.o.
DNA = DNA fragmentation; conditions: after administration
L1210 [6] = assay: L1210 leukemia model in vivo (% ILS, survival time); conditions: Mus musculus, L1210, iv

O=C(Nc1ccncc1)C(=O)c1cn(Cc2ccc(F)cc2)c2ccccc12 [Example 1, N-(Pyridin-4-yl)-[1-(4-fluorobenzyl)indol-3-yl]glyoxylamide]
Tox. i.p. [1]: ≈158 i.p. mg/kg
EC50 (KB cell line): 0.02 mg/L (≈ 0.0536 µM)
XTT EC50 KB (KB cell line; listed as D-24241): KB ≈ 0.02 μg/ml
XTT EC50 L1210 (L1210 cell line; listed as 1 (D 24241)): 0.170 mg/L
XTT EC50 L1210 (L1210 cell line; listed as D 24241): ≈0.17 μg/ml
XTT EC50 L1210 (L1210 cell line; listed as D-24241): L1210 ≈ 0.07 μg/ml
% ILS L1210 (L1210 [2]; 19 × 50 mg/kg per os, listed as D-24241, 50 mg/kg): 50% ILS
ILS at 464 mg/kg (L1210 [2]; Mus musculus, L1210, po, 1 × 464 mg/kg per os): 44%
ILS at 50 mg/kg (L1210 [2]; Mus musculus, L1210, po, 19 × 50 mg/kg per os): 50%
Antitumor action on L 1210 (mouse) (L1210 [2]): strong dose-dependent antitumor action
Hollow fiber intraperitoneal % INH (MCF-7; 4 × 15.8 mg/kg ip): no action
Hollow fiber subcutaneous % INH (MCF-7; 4 × 15.8 mg/kg ip): 33%
LD50 (in vivo; LD50 1 × per os): > 1000 mg/kg
LD50 (in vivo; ip, LD50 1 × ip): ~158 mg/kg
% WHI (KB [3]; 2 × 46.4 mg/kg ip): 22%
% WHI (KB [3]; 2 × 215 mg/kg po): 47%
Antitumor action in the KB test on the nude mouse (KB [3]): antitumor action
EC50 (SK-OV-3 cell line): 0.17 mg/L (≈ 0.455 µM)
XTT EC50 SK-OV-3 (SK-OV-3 cell line; SK-OV-3 tumor cells, listed as D-24241): SKOV3 ≈ 0.17 μg/ml
EC50 (LNCAP cell line): > 31.6 mg/L
XTT EC50 LNCaP (LNCAP cell line; listed as D 24241): >31.6 mg/L
XTT EC50 LNCaP (LNCAP cell line; listed as D-24241): LNCAP > 31.6 μg/ml
Hollow fiber intraperitoneal % INH (L1210 [4]; 4 × 15.8 mg/kg ip): 43%
Hollow fiber subcutaneous % INH (L1210 [4]; 4 × 15.8 mg/kg ip): 68%
Hollow fiber intraperitoneal % INH (KB [5]; 4 × 15.8 mg/kg ip): 46%
Hollow fiber subcutaneous % INH (KB [5]; 4 × 15.8 mg/kg ip): 81%

O=C(Nc1ccncc1)C(=O)c1cn(Cc2ccc(Cl)cc2)c2ccccc12 [Example 13, N-(Pyridin-4-yl)-[1-(4-chlorobenzyl)indol-3-yl]glyoxylamide]
LD50 1 × per os [1]: >1000 mg/kg
Tox. i.p. [1]: ≈1000 i.p. mg/kg
EC50 (KB cell line): ~0.017 mg/L (≈ 0.0436 µM)
EC50 (L1210 cell line): ~0.017 mg/L (≈ 0.0436 µM)
ILS at 464 mg/kg (L1210 [2]; Mus musculus, L1210, ip, 1 × 464 mg/kg ip): 18%
ILS at 681 mg/kg (L1210 [2]; Mus musculus, L1210, ip, 1 × 681 mg/kg ip): 0%
ILS at 147 mg/kg (L1210 [2]; Mus musculus, L1210, ip, 4 × 147 mg/kg ip): 94%
ILS at 215 mg/kg (L1210 [2]; Mus musculus, L1210, ip, 4 × 215 mg/kg ip): 13%
ILS at 100 mg/kg (L1210 [2]; Mus musculus, L1210, ip, 7 × 100 mg/kg ip): 35%
ILS at 147 mg/kg (L1210 [2]; Mus musculus, L1210, ip, 7 × 147 mg/kg ip): 59%
ILS at 681 mg/kg (L1210 [2]; Mus musculus, L1210, po, 1 × 681 mg/kg po): 22%
ILS at 215 mg/kg (L1210 [2]; Mus musculus, L1210, po, 4 × 215 mg/kg po): 31%
ILS at 100 mg/kg (L1210 [2]; Mus musculus, L1210, po, 7 × 100 mg/kg po): 63%
ILS at 147 mg/kg (L1210 [2]; Mus musculus, L1210, po, 7 × 147 mg/kg po): 75%
Prolongation of the survival time, L1210 (L1210 [2]; intraperitoneal or oral administration, 100 and 147 mg/kg multiple dose): distinct dose-dependent prolongation of the survival time
Antitumor action on L 1210 (mouse) (L1210 [2]): strong dose-dependent antitumor action
% WHI (SK-OV-3; 2 × 215 mg/kg po): 18%
% WHI (SK-OV-3; 7 × 46 mg/kg ip): 33%
Hollow fiber intraperitoneal % INH (MCF-7; 4 × 46 mg/kg ip): 38%
Hollow fiber subcutaneous % INH (MCF-7; 4 × 46 mg/kg ip): 47%
Hollow fiber intraperitoneal % INH (MCF-7; 4 × 147 mg/kg ip): 68%
Hollow fiber subcutaneous % INH (MCF-7; 4 × 147 mg/kg ip): 68%
Blood parameters in the hematopoiesis test (Hematopoiesis test): none of the blood parameters investigated were modified; also recorded: none of the blood parameters investigated were altered
Tumor growth in the Dunning tumor (Dunning tumor; listed as D24851): stoppage of tumor growth and in some animals even tumor regression
Tumor growth in the Dunning tumor (Dunning tumor; listed as D-24851): Stoppage of tumor growth, in some animals even tumor regression
LD50 (in vivo; LD50 1 × per os): 1000 mg/kg
LD50 (in vivo; ip, LD50 1 × ip): > 1000 mg/kg
Antitumor action in the KB test on the nude mouse (KB [3]): antitumor action
EC50 (SK-OV-3 cell line): ~0.03 mg/L (≈ 0.077 µM)
DNA fragmentation (DNA): no DNA fragmentation
EC50 (LNCAP cell line; LNCaP): ~0.03 mg/L (≈ 0.077 µM)
Hollow fiber intraperitoneal % INH (L1210 [4]; 4 × 46 mg/kg ip): 56%
Hollow fiber subcutaneous % INH (L1210 [4]; 4 × 46 mg/kg ip): no action
Hollow fiber intraperitoneal % INH (L1210 [4]; 4 × 147 mg/kg ip): 60%
Hollow fiber subcutaneous % INH (L1210 [4]; 4 × 147 mg/kg ip): 67%
Hollow fiber subcutaneous % INH (KB [5]; 4 × 46 mg/kg ip): 44%
Hollow fiber intraperitoneal % INH (KB [5]; 4 × 147 mg/kg ip): 12%
Hollow fiber subcutaneous % INH (KB [5]; 4 × 147 mg/kg ip): 35%

CC(=O)O[C@H]1C(=O)[C@@]2(C)[C@H]([C@H](OC(=O)c3ccccc3)[C@]3(O)C[C@H](OC(=O)[C@H](O)[C@@H](NC(=O)c4ccccc4)c4ccccc4)C(C)=C1C3(C)C)[C@]1(OC(C)=O)CO[C@@H]1C[C@@H]2O [Taxol, reference compound]
Tox. i.p. [1]: ≈158 i.p. mg/kg
EC50 (KB cell line): < 0.003 mg/L
EC50 (L1210 cell line): < 0.003 mg/L
ILS at 14.7 mg/kg (L1210 [6]; 1 × 14.7 mg/kg i.v.): 22%
ILS at 46.4 mg/kg (L1210 [6]; 1 × 46.4 mg/kg i.v.): 61%
EC50 (SK-OV-3 cell line): < 0.003 mg/L
EC50 (LNCAP cell line; LNCaP): < 0.003 mg/L

Source: US7579365B2 (ZIOPHRAM Oncology, Inc., priority 1998, dated 2009)
